Counter-ions that a name gives are not always drawn. Like-named read-outs stand apart in the source and are kept apart here.
Legend:
[1] = target: T1, recombinant human B1 receptors (Homo sapiens, UniProt P46663); test: Functional assay: antagonist potency by cytosolic calcium measurement in CHO-B1 cells (agonist LysDABK); type: cell-based
T1 construct: host or cells: CHO (CHO-B1)
T1 sequence (P46663 1-353): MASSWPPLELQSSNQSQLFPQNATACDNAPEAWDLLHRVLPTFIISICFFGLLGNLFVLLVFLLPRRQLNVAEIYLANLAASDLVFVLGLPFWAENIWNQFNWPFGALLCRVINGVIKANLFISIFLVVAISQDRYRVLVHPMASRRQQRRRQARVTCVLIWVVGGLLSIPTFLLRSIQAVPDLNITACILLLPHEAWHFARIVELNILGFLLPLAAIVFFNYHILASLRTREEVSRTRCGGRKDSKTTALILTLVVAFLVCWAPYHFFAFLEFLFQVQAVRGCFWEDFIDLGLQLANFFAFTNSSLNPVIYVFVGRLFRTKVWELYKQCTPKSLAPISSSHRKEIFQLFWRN
Experimental: Assessment of Antagonist Potency at B1 and B2 Receptors In Vitro by Measurement of Cytosolic Calcium Ion Concentration with a Plate Reader Fluorimeter in Cells Expressing Recombinant Human B1 or B2 Receptors
Chinese hamster ovary (CHO) cells stably expressing recombinant human B1 (CHO-B1, Euroscreen) or B2 (CHO-B2, Perkin-Elmer) receptors were cultured in Dulbecco's Modified Eagle's Medium (DMEM) containing 10% Fetal Calf Serum (FCS), 100 U/ml penicillin, 0.1 mg/ml streptomycin, 0.25 μg/ml amphotericin B, 1% Minimum Essential Medium Eagle (MEM), non essential amino acid solution, 600 μg/ml G418, 1% pyruvate (for the B2 cell line). Cells were kept at 37° C. in a humidified incubator in an atmosphere of 5% CO2/95% air and were passaged 1:4 three times a week. Cells were plated at 1.5-2.5×10^4 cell/well on standard 96-well microplates, measurements of cytosolic calcium ion concentration ([Ca^2+]i) were carried out 1-2 days after cell plating.
Measurements of [Ca^2+]i were carried out on CHO-B1 and CHO-B2 cells stably expressing human B1 and B2 receptors, respectively. Cells were grown in standard 96-well microplates and before the measurement were loaded with a fluorescent Ca^2+-sensitive dye, fluo-4/AM (2 μM): after removing the culture medium the dye was added to the cells (dissolved in assay buffer: 145 mM NaCl, 5 mM KCl, 2 mM MgCl2, 2 mM CaCl2, 10 mM HEPES, 20 mM D-glucose, 2 mM probenecid, 100 μl/well) and cells were incubated at 37° C. in a humidified incubator in an atmosphere of 5% CO2/95% air for 40-120 min. To stop dye loading cells were washed twice with assay buffer. After washing, various concentrations of the test compounds (diluted in extracellular medium from a DMSO stock solution, final DMSO concentration was <0.1%) or buffer were added to each well depending on the experimental setup. After incubation at 37° C. for 20-25 min. baseline and agonist-evoked changes of [Ca^2+]i were measured column by column with a plate reader fluorimeter (Fluoroskan Ascent, Labsystems). Excitation and detection of emission was carried out from the bottom of the plate. Filters used for Fluo-4: excitation filter—485 nm, emission filter—538 nm. The whole measurement process was performed at 37° C. and was controlled by custom software. Inhibitory potency of the test compounds was assessed by measuring the reduction in the agonist-evoked [Ca^2+]i-elevation in the presence of different concentrations of the compounds. The agonists were LysDABK for CHO-B1, and bradykinin for CHO-B2 cells. Agonists were applied at an EC80 concentration, the EC80-values were derived from daily determined dose-response curves. Fluorescence data were expressed as ΔF/F (fluorescence change normalized to baseline). All treatments on a single plate were measured in multiple wells. Data from all wells with the same treatment were averaged and the average values were used for analysis. Inhibitory potency of a compound at a single concentration point was expressed as percent inhibition of the control agonist response. Sigmoidal concentration-inhibition curves were fitted to the data (derived from at least three independent experiments) and IC50-values were determined as the concentration that produces half of the maximal inhibition caused by the compound.

[2] = target: T2, human recombinant bradykinin B1 receptor (Homo sapiens, UniProt P46663); test: Human recombinant bradykinin B1 receptor binding
T2 construct: purchased Euroscreen ES-091; host or cells: CHO cells
T2 sequence (P46663 1-353): T1 sequence (P46663 1-353)
Experimental: Receptor Binding Assays 1. Human Recombinant Bradykinin B1 Receptor Binding
Binding assays were carried out on human recombinant bradykinin) receptors (expressed in CHO cells) according to the Euroscreen Technical Data Sheet (Cat.No.:ES-091). 20 μg protein/tube was incubated with [3,4-prolyl-3,4-^3H(N)]-[Des-Arg^10] Kallidin as radioligand. Non specific binding was determined in the presence of 10 μM Lys-des-Arg^9-Bradykinin. The final incubation volume was 250 μl. Samples were incubated for 15 min. at 25° C. then were rapidly vacuum filtered through GF/B filters presoaked for at least 1 h in 0.5% PEI. Radioactivity was determined by liquid scintillation spectroscopy.

[3] = reference compounds, functional test, read-out: IC50
[4] = reference compounds, binding test, read-out: Ki
[5] = CHO-B1 cells, LysDABK at EC80, fluo-4 [Ca2+]i, read-out: B1 func.
[6] = CHO cell membranes, [3H]-[Des-Arg10] Kallidin radioligand, read-out: B1 binding

| Compound | IC50 [1, 5] | Ki [2, 6] | IC50 [1, 3] | Ki [2, 4] |
| --- | --- | --- | --- | --- |
| CN1CCN(C(=O)C2CCN(S(=O)(=O)c3ccc(NCC(c4ccccc4)c4ccccc4)c(C(=O)N4CCOCC4)c3)CC2)CC1 [NVP-SAA164, 4-{2-[(2,2-diphenyl-ethyl)-amino]-5-{-4-[4-[(4-methyl-1-piperazinyl)-carbonyl]-1-piperidinyl]-sulfonyl}-benzoyl}-morfoline, reference compound] |  |  | 0.033 µM | 0.008 µM |
| O=C(NCC(=O)N1CCC(O)CC1)c1ccc(S(=O)(=O)Nc2ccccc2Oc2ccc(Cl)cc2Cl)cc1 [Example 1.22, 4-[2-(2,4-Dichloro-phenoxy)-phenylsulfamoyl]-N-[2-(4-hydroxy-piperidin-1-yl)-2-oxo-ethyl]-benzamide] | < 0.02 µM | < 0.02 µM |  |  |
| CN(C)CCCN1CCN(C(=O)CNC(=O)c2ccc(S(=O)(=O)Nc3ccccc3Oc3ccccc3)cc2)CC1 [Example 2.6, N-{2-[4-(3-Dimethylamino-propyl)-piperazin-1-yl]-2-oxo-ethyl}-4-(2-phenoxy-phenylsulfamoyl)-benzamide] | < 0.02 µM | < 0.02 µM |  |  |
| O=C(NCC(=O)N1CCN(CCN2CCCCC2)CC1)c1ccc(S(=O)(=O)Nc2ccccc2Oc2ccc(Cl)cc2Cl)cc1 [Example 1.13, 4-[2-(2,4-Dichloro-phenoxy)-phenylsulfamoyl]-N-{2-oxo-2-[4-(2-piperidin-1-yl-ethyl)-piperazin-1-yl]-ethyl}-benzamide] | < 0.02 µM | < 0.02 µM |  |  |
| O=C(NCC(=O)N1CCN(CCCN2CCCCC2)CC1)c1ccc(S(=O)(=O)Nc2ccccc2Oc2ccc(Cl)cc2Cl)cc1 [Example 1.9, 4-[2-(2,4-Dichloro-phenoxy)-phenylsulfamoyl]-N-{2-oxo-2-[4-(3-piperidin-1-yl-propyl)-piperazin-1-yl]-ethyl}-benzamide] | < 0.02 µM | < 0.02 µM |  |  |
| O=C(NCC(=O)N1CCN(CCN2CCCC2)CC1)c1ccc(S(=O)(=O)Nc2ccccc2Oc2ccccc2)cc1 [Example 2.2, N-{2-Oxo-2-[4-(2-pyrrolidin-1-yl-ethyl)-piperazin-1-yl]-ethyl}-4-(2-phenoxy-phenylsulfamoyl)-benzamide] | < 0.02 µM | < 0.02 µM |  |  |
| CN(C)CCN1CCN(C(=O)CNC(=O)c2ccc(S(=O)(=O)Nc3ccccc3Oc3ccc(Cl)cc3Cl)cc2)CC1 [Example 1.2, 4-[2-(2,4-Dichloro-phenoxy)-phenylsulfamoyl]-N-{2-[4-(2-dimethylamino-ethyl)-piperazin-1-yl]-2-oxo-ethyl}-benzamide] | < 0.02 µM | < 0.02 µM |  |  |
| CN1CCC(N2CCN(C(=O)CNC(=O)c3ccc(S(=O)(=O)Nc4ccccc4Oc4ccccc4)cc3)CC2)CC1 [Example 2.34, N-{2-[4-(1-Methyl-piperidin-4-yl)-piperazin-1-yl]-2-oxo-ethyl}-4-(2-phenoxy-phenylsulfamoyl)-benzamide] | < 0.02 µM | < 0.02 µM |  |  |
| CCCN1C(=O)[C@H](NC(=O)Nc2ccc(N3CCC(N4CCCCC4)CC3)cc2)N=C(c2ccc(C)cc2)c2ccccc21 [compound 3, N-[4-(,4′-bipiperidin)-1′-ylphenyl]-N′-[(3R)-2,3-dihydro-5-(4-methyl-phenyl)-2-oxo-1-propyl-1H-1,4-benzodiazepin-3-yl]-urea, reference compound] |  |  | 0.0645 µM | 0.0134 µM |

More lines, main results first:

| IC50 [1, 5] | Ki [2, 6] | Compound | IC50 [1, 3] | Ki [2, 4] |
| --- | --- | --- | --- | --- |
| < 0.02 µM | < 0.02 µM | O=C(NCC(=O)N1CCNCC1)c1ccc(S(=O)(=O)Nc2ccccc2Oc2ccc(Cl)cc2Cl)cc1 [Example 11.4, 4-[2-(2,4-Dichloro-phenoxy)-phenylsulfamoyl]-N-(2-oxo-2-piperazin-1-yl-ethyl)-benzamide hydrochloride] |  |  |
| < 0.02 µM | < 0.02 µM | O=C(NCC(=O)N1CCC(CCN2CCCC2)CC1)c1ccc(S(=O)(=O)Nc2ccccc2C(=O)c2ccccc2)cc1 [Example 3.15, 4-(2-Benzoyl-phenylsulfamoyl)-N-{2-oxo-2-[4-(2-pyrrolidin-1-yl-ethyl)-piperidin-1-yl]-ethyl}-benzamide] |  |  |
| < 0.02 µM | < 0.02 µM | O=C(NCC(=O)N1CCCNCC1)c1ccc(S(=O)(=O)Nc2ccccc2C(=O)c2ccccc2)cc1 [Example 11.6, 4-(2-Benzoyl-phenylsulfamoyl)-N-(2-[1,4]diazepan-1-yl-2-oxo-ethyl)-benzamide hydrochloride] |  |  |
| < 0.02 µM | < 0.02 µM | CN1CCCC(CN2CCN(C(=O)CNC(=O)c3ccc(S(=O)(=O)Nc4ccccc4C(=O)c4ccccc4)cc3)CC2)C1 (stereo not shown) [Example 3.8, 4-(2-Benzoyl-phenylsulfamoyl)-N-{2-[4-(1-methyl-piperidin-3-ylmethyl)-piperazin-1-yl]-2-oxo-ethyl}-benzamide] |  |  |
| < 0.02 µM | < 0.02 µM | O=C(NCC(=O)N1CCC(CO)CC1)c1ccc(S(=O)(=O)Nc2ccccc2C(=O)c2ccccc2)cc1 [Example 3.9, 4-(2-Benzoyl-phenylsulfamoyl)-N-[2-(4-hydroxymethyl-piperidin-1-yl)-2-oxo-ethyl]-benzamide] |  |  |
| < 0.02 µM | < 0.02 µM | O=C(NCC(=O)N1CCC(C(F)(F)F)CC1)c1ccc(S(=O)(=O)Nc2ccccc2C(=O)c2ccccc2)cc1 [Example 3.6, 4-(2-Benzoyl-phenylsulfamoyl)-N-[2-oxo-2-(4-trifluoromethyl-piperidin-1-yl)-ethyl]-benzamide] |  |  |
| < 0.02 µM | < 0.02 µM | CN(C)CCCN1CCN(C(=O)CNC(=O)c2ccc(S(=O)(=O)Nc3ccccc3C(=O)c3ccccc3)cc2)CC1 [Example 3.14, 4-(2-Benzoyl-phenylsulfamoyl)-N-{2-[4-(3-dimethylamino-propyl)-piperazin-1-yl]-2-oxo-ethyl}-benzamide] |  |  |
| < 0.02 µM | < 0.02 µM | NC(=O)C1CCN(C(=O)CNC(=O)c2ccc(S(=O)(=O)Nc3ccccc3C(=O)c3ccccc3)cc2)CC1 [Example 3.17, 1-{2-[4-(2-Benzoyl-phenylsulfamoyl)-benzoylamino]-acetyl}-piperidine-4-carboxylic acid amide] |  |  |
| < 0.02 µM | < 0.02 µM | CN(C)CCN1CCN(C(=O)CNC(=O)c2ccc(S(=O)(=O)Nc3ccccc3C(=O)c3ccccc3)cc2)CC1 [Example 3.2, 4-(2-Benzoyl-phenylsulfamoyl)-N-{2-[4-(2-dimethylamino-ethyl)-piperazin-1-yl]-2-oxo-ethyl}-benzamide] |  |  |
| < 0.02 µM | < 0.02 µM | CC1CCN(C(=O)CNC(=O)c2ccc(S(=O)(=O)Nc3ccccc3C(=O)c3ccccc3)cc2)CC1 [Example 3.7, 4-(2-Benzoyl-phenylsulfamoyl)-N-[2-(4-methyl-piperidin-1-yl)-2-oxo-ethyl]-benzamide] |  |  |
| < 0.02 µM | < 0.02 µM | O=C(NCC(=O)N1CCC(O)CC1)c1ccc(S(=O)(=O)Nc2ccccc2C(=O)c2ccccc2)cc1 [Example 3.16, 4-(2-Benzoyl-phenylsulfamoyl)-N-[2-(4-hydroxy-piperidin-1-yl)-2-oxo-ethyl]-benzamide] |  |  |
